The results in this text go back to patent publication US20170051149A1, “AZOARYLS AS REVERSIBLY MODULATABLE TUBULIN INHIBITORS” (ECOLE NORMALE SUPERIEURE DE LYON, priority 2014, published 2017).

Series [1] is described as follows: UV-Vis absorption spectra of trans and cis isomers (λstrong, εE, λiso). In kind it is physicochemical.
The next series has as its system MDA-MB-231 cells. The series can be described thus: in cellulo tubulin imaging, immunostaining of microtubule cytoskeleton. In kind it is cell-based. The conditions noted are these: 20 h; for effect on microtubule structure: 390 nm regimen (200 ms every 2 min). The method, then:
In order to investigate the influence of compound I.1 on microtubule structure in cellulo, immunostaining of the microtubule cytoskeleton in MDA-MB-231 cells was performed. Cells were treated with compound I.1 and then kept in dark conditions, or exposed to 390 nm light (200 ms every 2 min), or exposed to a rescue protocol with sequential pulses of 390 nm light (200 ms every 2 min) then immediately 505 nm (600 ms every 2 min). After 20 h of treatment cells were fixed, stained and subjected to confocal microscopy.
Briefly, prior to analysis, cells were washed with pre-warmed PBS then cell extraction buffer (80 mM piperazine-N,N′-bis(2-ethanesulfonic acid) [abbreviated PIPES], 1 mM MgCl2, 5 mM EGTA-K and 0.5% Triton X-100, at pH 6.8) was added to remove monomeric and dimeric tubulin subunits. After 30 s of extraction, cells were fixed for 10 min with 0.5% glutaraldehyde. Following glutaraldehyde quenching with 0.1% NaBH4 in PBS for 7 min, coverslips were blocked with PBS containing 0.2% BSA (bovine serum albumin). Immunostaining was performed using anti-α-tubulin antibody (ab18251) and the AlexaFluor 488 secondary antibody (A 11008), purchased from Abcam (Cambridge, UK) and Invitrogen (Darmstadt, Germany), respectively. Hoechst 33342 (bisbenzimide), purchased from Sigma-Aldrich (catalogue number B2261; Taufkirchen, Germany), was used at a concentration of 1 ug/ml for nuclear staining. Cells were mounted with PermaFluor™ mounting medium (Beckman Coulter) and analyzed with a Zeiss LSM 510 Meta confocal microscope (Jena, Germany). Acquired images were processed using the ImageJ program (National Institutes of Health) and representative images are collected in FIG. 7.

Setting [2] is: fluorophore moiety range above 510 nm, PBS pH = 7.4, 20% MeCN.

SMILES strings stand for the structures.

Regarding `COc1ccc(N=Nc2cc(OC)c(OC)c(OC)c2)cc1O` [I.1, 2-methoxy-5-((3,4,5-trimethoxyphenyl)diazenyl)phenol], in series [1] (PBS pH = 6, 20% MeCN), the “εE(λstrong)” value worked out at 17100 M⁻¹ cm⁻¹, the λiso is on record as 465 nm and the λstrong turned out to be 380 nm. Besides, in series [1] (PBS pH = 7.4, 20% MeCN), the “εE(λstrong)” value came to 17700 M⁻¹ cm⁻¹, the λiso is 470 nm and the λstrong is recorded as 375 nm. In addition, the “effect on microtubule structure” value with MDA-MB-231 cells (1.5 μM) was “degradation of the microtubule cytoskeleton”. In addition, the “effect on microtubule structure” value in the series on MDA-MB-231 cells (4 μM) is “complete microtubule breakdown plus fragmentation of the nuclei”. Further, the “nuclear fragmentation and microtubule destruction” value in the series with MDA-MB-231 cells (kept in the dark) is listed as “not observed”. Also, in the series on MDA-MB-231 cells (rescue: 390 nm (200 ms) then 505 nm (600 ms) every 2 min), the “effect of rescue protocol on signs of cytotoxic effects” value is listed as “dose-dependent reduction of the signs of cytotoxic effects”.
Regarding `CCN(CC)c1ccc2c(-c3ccccc3C(=O)N3CCN(CCCOc4c(N=Nc5cc(OC)c(OC)c(OC)c5)ccc(OC)c4C)CC3)c3ccc(=[N+](CC)CC)cc-3oc2c1.CCN(CC)c1ccc2c(-c3ccccc3C(=O)N3CCN(CCCOc4c(N=Nc5cc(OC)c(OC)c(OC)c5)ccc(OC)c4C)CC3)c3ccc(=[N+](CC)CC)cc-3oc2c1.O=C[O-].O=C[O-]` [I.25, N-(6-(diethylamino)-9-(2-(4-(3-(3-methoxy-2-methyl-6-((3,4,5-trimethoxyphenyl)diazenyl)phenoxy)propyl)piperazine-1-carbonyl)phenyl)-3H-xanthen-3-ylidene)-N-ethylethanaminium bis(formate) salt], in series [1] (PBS pH = 7.4, 20% MeCN), the “εE(λstrong)” value is 15300 M⁻¹ cm⁻¹, the λiso came to 460 nm and the λstrong is 375 nm. Besides, in series [1] (setting [2]), the “εE(λstrong)” value is “(66600) M^−1cm^−1” and the λstrong result is listed as “(565) nm”. For the same molecule, in series [1] (fluorophore moiety range, A(λ > 510) invariant upon photoswitching), the λiso result is recorded as “(510 ff) nm”.
